This note sets out measurements from patent US12624004B2 (Fudan University, priority 2019, dated 2026).

SMILES strings stand for the structures. Counter-ions that a name gives are not always drawn. Like-named read-outs stand apart in the source and are kept apart here.

Assay [1] addresses T1, δ opioid receptor (Homo sapiens, UniProt P41143).
T1 construct: expressed in transfected cells; host or cells: CHO cells (membranes)
Nature of the assay: Competition binding assay on membranes of CHO cells expressing δ opioid receptor, [3H]-labeled ligand. Particulars: for inhibition at 10 µM / inhibition at 1 µM: 0.5 h; for inhibition at 10 µM: Table 1-1, 10 μM concentration of compound; for inhibition at 1 µM: 1 μM concentration of compound; for Ki: read-out: δOR Ki. The procedure:
(§1) CHO cells expressing p opioid receptor, δ opioid receptor and κ opioid receptor were cultured in 10 cm^2 culture dishes (F-12 medium+10% neonatal bovine serum) for several days, and the culture fluid was aspirated after the cells had grown to the bottom of the dishes; 3 ml of PBS/EDTA solution (0.1M NaCl, 0.01M NaH2PO4, 0.04% EDTA) was added to digest the cells for 3-5 min. Add ice-cold homogenate (50 mM HEPES PH 7.4, 3 mM MgCl, 1 mM EGTA) to the centrifuge tube, transfer the solution and sediment to a homogenizer and homogenize; then transfer the homogenate to a centrifuge tube and centrifuge at 18000 rpm. Centrifuge for 15 min, two times; the obtained precipitate was homogenized with appropriate amount of 50 mM Tris-HCl, pH 7.4 buffer and divided into centrifuge tubes and stored at −70° C. in the refrigerator until use.
(§2) The total binding tube was spiked with 20-30 μg of the expressed membrane receptor protein and […] ligand (1-2 nM), the corresponding non-specific binding tube was spiked with 1 μM of the corresponding ligand, and the sample tubes were spiked with various screened opioid ligands in a final volume of […], incubated at 30° C. for 30 min, and the reaction was terminated in ice water. […] The samples were filtered under negative pressure through GF/C (whatman) glass fiber filter paper on a Millipore sample collector. The reaction was rinsed three times with 4 ml of 50 mMV Tris-HCl (pH 7.4), the filter paper was dried and placed in 0.5 ml Eppendorf tubes with 0.5 ml of lipophilic scintillation solution, the radioactivity was measured by PERKIN ELMER PRI-CARB 2910 liquid scintillation counter and the inhibition rate was calculated. Inhibition rate (or binding rate)=(total binding rate dpm−sample tube dpm)/(total binding tube dpm−non-specific binding tube dpm)×100%
(§3) IC50 was calculated using Prism 5.0 software. the Ki value was calculated as follows, Ki=IC50/(1+[IL]/Kd), [lL] is the concentration of the added labeled ligand and Kd is the equilibrium dissociation parameter of the labeled ligand.
(§4) CHO cells expressing p opioid receptor, δ opioid receptor and κ opioid receptor were cultured in a 10 cm^2 culture dish (F-12 medium+10% neonatal bovine serum) for several days, and the culture fluid was aspirated after the cells grew to the bottom of the dish. 3 mL PBS/EDTA solution (0.1 M NaCl, 0.01 M NaH2PO4, 0.04% EDTA) was added to digest the cells for 3˜5 min, blew with a pipette to completely dislodge the cells. The cells were collected in a 40 mL centrifuge tube, centrifuged at 5000 rpm for 5 min. The supernatant was removed and the ice-cold homogenate (50 mM HEPES pH 7.4, 3 mM MgCl2, 1 mM EGTA) was added to the centrifuge tube. The solution and the precipitate were transferred to a homogenizer. Then the homogenate was transferred to a centrifuge tube and centrifuged at 18000 rpm for 15 min. The precipitate was centrifuged twice at 18000 rpm for 15 min. The obtained precipitate was homogenized by adding appropriate amount of 50 mM Tris-HCl, pH 7.4 buffer and divided into centrifuge tubes and stored at −70° C. in the refrigerator until use.
(§5) The total binding tube was added with 20-30 μg of expressed membrane receptor protein and [3H]-labeled ligand (1-2 nM). The corresponding non-specific binding tube was added with 1 μM of the corresponding ligand, and the sample tubes were added with various screened opioid ligands in a final volume of 100 μL. All of them were incubated for 30 min at 30° C., and the reaction was terminated in ice water. The samples were filtered under negative pressure through GF/C (Whatman) glass fiber filter paper on a Millipore sample collector. The reaction was rinsed three times with 4 mL of 50 mM Tris-HCl (pH 7.4), the filter paper was dried and placed in 0.5 mL Eppendorf tubes with 0.5 mL of lipophilic scintillation solution. […]

Assay [2] concerns the target T2, μ opioid receptor (Homo sapiens, UniProt P35372).
T2 construct: expressed in transfected cells; host or cells: CHO cells (membranes)
Nature of the assay: Competition binding assay on membranes of CHO cells expressing μ opioid receptor, [3H]-labeled ligand. To be noted: for inhibition at 10 µM: Table 1-1, 10 μM concentration of compound, mean ± SD of three measurements, read-out: μOR Binding rate (%); for Ki: read-out: μOR Ki. The procedure: as §1, §2, §3, §4, §5

Assay [3] deals with T3, κ opioid receptor (Homo sapiens, UniProt P41145).
T3 construct: expressed in transfected cells; host or cells: CHO cells (membranes)
Nature of the assay: Competition binding assay on membranes of CHO cells expressing κ opioid receptor, [3H]-labeled ligand. To be noted: for inhibition at 10 µM / inhibition at 1 µM: 0.5 h; for inhibition at 10 µM: 10 μM concentration of compound; for inhibition at 1 µM: 1 μM concentration of compound; for Ki: read-out: κOR Ki. The procedure:
as §1, §2, §3, §4, §5

Setting [4] is: Table 1-1, read-out: κOR Binding rate (%).
[5] abbreviates: Table 4-1, read-out: δOR Binding rate (%).
Setting [6] is: Table 4-1, read-out: κOR Binding rate (%).

As to `COc1cccc(C2(O)CCC(N(Cc3ccccc3)S(=O)(=O)c3ccccc3)CC2CN(C)C)c1` (stereo not drawn), the inhibition at 10 µM in assay [1] (read-out: δOR Binding rate (%)) was found to be 9.53%; in assay [2], 70.5 ± 2.3%; in assay [3] (setting [4]) it was 84.7 ± 2.1%.

With `COc1cccc(C2(O)CCN(C(=O)Cc3ccccc3Cl)CC2CN(C)C)c1` (stereo not drawn) [FWBE20, 2-(2-Chlorophenyl)-1-(3-((dimethylamino)methyl)-4-hydroxy-4-(3-methoxyphenyl)piperidin-1-yl)ethyl-1-one hydrochloride], the inhibition at 1 µM in assay [1] (Table 5-1, read-out: δOR Combination rate (%)) was 0%; in assay [2] (0.5 h, Table 5-1, 1 μM concentration of compound, read-out: μOR Combination rate (%)), 28.3 ± 7.2%; in assay [3] (Table 5-1, read-out: κOR Combination rate (%)), 34.8 ± 0.7%.

Take `CN(C)CC1CN(S(=O)(=O)Cc2ccccc2)CCC1(O)c1cccc(OC(F)(F)F)c1.Cl` (stereo not drawn) [hydrochloride]: the inhibition at 1 µM in assay [1] (Table 2-1, read-out: δOR Binding rate (%)) amounted to 40.8 ± 2.23%; in assay [3] (Table 2-1, read-out: κOR Binding rate (%)) it was 21.4 ± 0.36%. Besides, in assay [2] (Table 2-1), the Ki (commonly a dissociation constant, usually derived from enzyme kinetics or from competition with a known ligand) amounted to 64.5 ± 1.76 nM.

Consider `COc1cccc([C@]2(O)CCN(C(=O)Cc3cc(F)c(F)cc3F)C[C@H]2CN(C)C)c1`, for which the inhibition at 1 µM worked out at 26.6 ± 3.9% in assay [1] (setting [5]) and 33 ± 4.1% in assay [3] (setting [6]). Further, the Ki in assay [2] (Table 4-1) stood at 165 ± 22.3 nM.

As to `COc1cccc(C2(O)CCC(N(Cc3ccccc3)S(=O)(=O)c3cccc(Cl)c3)CC2CN(C)C)c1` (stereo not drawn), the inhibition at 10 µM in assay [1] (read-out: δOR Binding rate (%)) was determined as 5.1%; in assay [2] it was 85.8 ± 3.2%. In assay [3] (Table 1-1), the Ki came out at 9.81 ± 0.32 nM.

Take `CN(C)C[C@@H]1CN(S(=O)(=O)Cc2ccccc2)CC[C@@]1(O)c1cccc(O)c1` [(3R,4S)-1-(Benzylsulfonyl)-3-((dimethylamino)methyl)-4-(3-hydroxyphenyl)piperidin-4-ol hydrochloride]: the Ki in assay [1] (Table 4-1) is 1100 ± 42 nM; in assay [2] (Table 4-1) it was 0.17 ± 0.01 nM; in assay [3] (Table 4-1), 33.7 ± 3.26 nM.

On to `COc1cccc(C2(OC(F)F)CCN(S(=O)(=O)Cc3ccccc3)CC2CN(C)C)c1.Cl` (stereo not drawn) [hydrochloride], for which the inhibition at 0.1 µM was 0% in assay [1] (Table 2-1 footnote a, at 0.1 μM, read-out: δOR Inhibition rate or binding rate); 22.6 ± 9.8% in assay [2] (Table 2-1 footnote a, at 0.1 μM, read-out: μOR Inhibition rate or binding rate); 15.5 ± 4.1% in assay [3] (Table 2-1 footnote a, at 0.1 μM, read-out: κOR Inhibition rate or binding rate).

With `COc1cccc(C2(O)CCC(NS(=O)(=O)c3cccc(Cl)c3)CC2CN(C)C)c1` (stereo not drawn), the inhibition at 10 µM was found to be 14.5 ± 5.8% in assay [1] (read-out: δOR Binding rate (%)), 79.7 ± 4.6% in assay [2] and 35.9 ± 5.7% in assay [3] (setting [4]).

With `COc1cccc(C2(OC(=O)c3ccccc3)CCC(NS(=O)(=O)c3cccc(Cl)c3)CC2CN(C)C)c1` (stereo not drawn), the inhibition at 10 µM in assay [1] (read-out: δOR Binding rate (%)) amounted to 18.8 ± 8.6%; in assay [2], 70.4 ± 3%; in assay [3] (setting [4]), 39 ± 5.5%.

On to `COc1cccc(C2(OC(=O)c3ccccc3)CCC(N(C)S(=O)(=O)Cc3ccccc3)CC2CN(C)C)c1` (stereo not drawn), for which the inhibition at 10 µM in assay [1] (read-out: δOR Binding rate (%)) was found to be 30.1 ± 14.9%; in assay [2] it was 81.2 ± 4.2%; in assay [3] (setting [4]) it was 35.7 ± 3%.

In the case of `CN(C)C[C@@H]1CN(C(=O)Cc2cc(F)c(F)cc2F)CC[C@@]1(O)c1cccc(O)c1`, the inhibition constant Ki in assay [1] (Table 4-1) worked out at 178 ± 17.9 nM; in assay [2] (Table 4-1), 1.77 ± 0.18 nM; in assay [3] (Table 4-1), 127 ± 1.6 nM.

Consider `COc1cccc(C2(OC(=O)c3ccccc3)CCC(NS(=O)(=O)c3ccccc3)CC2CN(C)C)c1` (stereo not drawn), for which the inhibition at 10 µM in assay [1] (read-out: δOR Binding rate (%)) came to 17.4 ± 2.5%; in assay [2] it was 80.9 ± 4.4%; in assay [3] (setting [4]), 51.5 ± 6.6%.

Consider `COc1cccc(C2(O)CCC(S(=O)(=O)Cc3ccccc3)CC2CN(C)C)c1` (stereo not drawn) [4-(Benzylsulfonyl)-2-((dimethylamino)methyl)-1-(3-methoxyphenyl) cyclohexane-1-ol hydrochloride], for which the inhibition at 10 µM in assay [1] (read-out: δOR Binding rate (%)) was determined as 44 ± 7.85%; in assay [2], 98.6 ± 1.2%; in assay [3] (setting [4]), 47.7 ± 3.1%.

Regarding `CN(C)C[C@H]1CN(S(=O)(=O)Cc2ccccc2)CC[C@]1(O)c1cccc(O)c1` [(3S,4R)-1-(Benzylsulfonyl)-3-((dimethylamino)methyl)-4-(3-hydroxyphenyl)piperidin-4-ol hydrochloride], the inhibition constant Ki in assay [1] (Table 4-1) was 1089 ± 9 nM; in assay [2] (Table 4-1), 38.3 ± 1.18 nM; in assay [3] (Table 4-1), 231 ± 13.1 nM.

As to `COc1cccc(C2(OC(=O)c3ccccc3)CCC(N(C)S(=O)(=O)Cc3cccc(Cl)c3)CC2CN(C)C)c1` (stereo not drawn), the inhibition at 10 µM in assay [1] (read-out: δOR Binding rate (%)) came to 4.8%; in assay [2], 89.8 ± 4.6%; in assay [3] (setting [4]) it was 25.5 ± 6.1%.

As for `COc1cccc(C2(O)CCC(NS(=O)(=O)c3ccccc3)CC2CN(C)C)c1` (stereo not drawn) [N-(3-((Dimethylamino)methyl)-4-hydroxy-4-(3-methoxyphenyl)cyclohexyl) benzenesulfonamide hydrochloride], the inhibition at 10 µM in assay [1] (read-out: δOR Binding rate (%)) was determined as 38 ± 2.43%; in assay [2], 75.8 ± 4.1%; in assay [3] (setting [4]), 25.8 ± 7.9%.

In the case of `COc1cccc([C@]2(O)CCN(S(=O)(=O)Cc3ccccc3)C[C@H]2CN(C)C)c1` [(3R,4S)-1-(Benzylsulfonyl)-3-((dimethylamino)methyl)-4-(3-methoxyphenyl)piperidin-4-ol hydrochloride salt], the inhibition at 0.1 µM in assay [1] (Table 4-1 footnote a, 0.1 μM, read-out: δOR Inhibition rate) came to 10.5 ± 3.7%; in assay [2] (Table 4-1 footnote a, 0.1 μM, read-out: μOR Inhibition rate), 27.5 ± 1.54%; in assay [3] (Table 4-1 footnote a, 0.1 μM, read-out: κOR Inhibition rate), 15.2 ± 1.56%.

Regarding `COc1cccc([C@@]2(O)CCN(C(=O)Cc3cc(F)c(F)cc3F)C[C@@H]2CN(C)C)c1`, the inhibition at 1 µM in assay [1] (setting [5]) turned out to be 0%; in assay [3] (setting [6]), 23.4 ± 3.9%. Moreover, the inhibition constant Ki in assay [2] (Table 4-1) amounted to 2310 ± 234 nM.

`CN(C)C[C@H]1CN(C(=O)Cc2cc(F)c(F)cc2F)CC[C@]1(O)c1cccc(O)c1`: the Ki came out at 3560 ± 96.5 nM in assay [1] (Table 4-1), 53.5 ± 0.09 nM in assay [2] (Table 4-1) and 42.3 ± 0.6 nM in assay [3] (Table 4-1).
